The values that follow come from US20110275576A1, “Carbohydrate-Cyclopamine Conjugates as Anticancer Agents” (Utah State University, priority 2009, published 2011).

Where two headings read alike, the source gives them in different places.

One may read the IC50 as the concentration needed to halve the response being measured.

The assay relates to A549 cells. As to the kind of experiment: MTS assay, proliferation of A549 cells. As to conditions: for IC50: read-out: IC50, anticancer activity against lung cancer; for proliferation of A549 cells: statement on Table 1. In kind it is cell-based, human. The method, then: Experimental procedure for MTS assay. To determine the efficacy of the compounds to cancer cells, a 3-(4,5-dimethylthiazol-2-yl)-5-(3-carboxymethoxyphenyl)-2-(4- sulfophenyl)-2H-tetrazolium inner salt (MTS) assay was used. A549 cells (ATCC, Manassas, Va.), representing a human lung carcinoma cell line, were plated on flat-bottomed 96-well plates in the presence of various concentrations of each compound. After incubation for up to 48 h at 37° C., the percentage of cell proliferation was determined with the MTS assay (Promega CellTiter 96 Aqueous Assay. Madison, Wis.), following the manufacturer's instruction.
(Formazan colour is commonly taken as a measure of viable cells.)

Setting [1] is: A549 human lung carcinoma cells, MTS assay, incubation up to 48 h at 37° C.

For `CC1=C2C[C@H]3[C@@H](CC=C4C[C@@H](O)CC[C@@]43C)[C@@H]2CC[C@]12O[C@@H]1C[C@H](C)CN[C@H]1[C@H]2C` [cyclopamine], the IC50 (Homo sapiens, A549, 48 h) came out at 49 µM.
Regarding `CC1=C2C[C@H]3[C@@H](CC=C4C[C@@H](O)CC[C@@]43C)[C@@H]2CC[C@]12O[C@@H]1C[C@H](C)CN(Cc3cn(C4OC(C)[C@H](O)C(O)[C@@H]4O)nn3)[C@H]1[C@H]2C` (stereo partly drawn) [Example 3f, N-(1-(α-L-Rhamnopyranosyl)-1H-1,2,3-triazol-4-yl)methylcyclopamine], under “A549 cells, MTS assay, comparison with cyclopamine”, the “proliferation of A549 cells compared with cyclopamine” value is “reduced the proliferation of A549 cells more than cyclopamine”. Moreover, the “proliferation of A549 cells” value (A549 cells, MTS assay) is “reduced the proliferation of A549 cells”. Also, the IC50 under setting [1] was found to be 33 µM.
`CC1=C2C[C@H]3[C@@H](CC=C4C[C@@H](O)CC[C@@]43C)[C@@H]2CC[C@]12O[C@@H]1C[C@H](C)CN(Cc3cn([C@@H]4OC(CO)[C@@H](O[C@@H]5OC(CO)[C@H](O)C(O)C5O)C(O)C4O)nn3)[C@H]1[C@H]2C` (stereo partly drawn) [Example 3d, N-(1-(4-O-(β-D-Galactopyranosyl)-β-D-glucopyranosyl)-1H-1,2,3-triazol-4-yl)methylcyclopamine]: the “proliferation of A549 cells” value (A549 cells, MTS assay) is “reduced the proliferation of A549 cells”. The IC50 (Homo sapiens, A549, 48 h) stood at 183 µM.
`CC1=C2C[C@H]3[C@@H](CC=C4C[C@@H](O)CC[C@@]43C)[C@@H]2CC[C@]12O[C@@H]1C[C@H](C)CN(Cc3cn([C@@H]4OC(CO)[C@@H](O)C(O)C4O)nn3)[C@H]1[C@H]2C` (stereo partly drawn) [Example 3a, N-(1-(β-D-Glucopyranosyl)-1H-1,2,3-triazol-4-yl)methylcyclopamine]: the “proliferation of A549 cells” value (A549 cells, MTS assay) is reported as “reduced the proliferation of A549 cells”. In addition, the IC50 under setting [1] turned out to be 144 µM.
For `CC1=C2C[C@H]3[C@@H](CC=C4C[C@@H](O)CC[C@@]43C)[C@@H]2CC[C@]12O[C@@H]1C[C@H](C)CN(Cc3cn([C@@H]4OC(CO)[C@@H](O[C@@H]5OC(CO)[C@@H](O[C@@H]6OC(CO)[C@@H](O)C(O)C6O)C(O)C5O)C(O)C4O)nn3)[C@H]1[C@H]2C` (stereo partly shown) [Example 3k] the same measures were “reduced the proliferation of A549 cells” and 96 µM.
